# Experimental data published in patent US11691962B2 (eXIthera Pharmaceuticals, Inc., priority 2018, dated 2023).
# Columns and labels:
# Format in all cases: biochemical
# Trypsin = test: Dose response assay for protease inhibitors: trypsin; conditions: selectivity, trypsin over Factor XIa
# Method: (§1) • Assay buffer: 20 mM Hepes, pH 7.4; 150 mM NaCl; 0.02% Tween 20 • Compounds: 10 mM stocks in DMSO • Substrate: 20 mM Glp-Pro-Arg-AMC, 25 mg/2.3 mL H2O (store at +4° C.) [Factor XIa, thrombin, and trypsin] • 20 mM Pro-Phe-Arg-AMC (Bachem I-1295), 25 mg/2.2 mL H2O • or Boc-Leu-Gly-Arg-AMC (Bachem I-1105), 25 mg/2.07 mL H2O • (store at +4° C.) [Factor Xa] • Enzyme: Factor XIa; 0.25 μM in 50% glycerol (20 μg/mL) • Trypsin; 0.2 μM in 50% glycerol (4.8 μg/mL) • Thrombin; 0.2 μM in 50% glycerol (7.34 μg/mL) • Factor Xa; 0.2 μM in 50% glycerol (9.2 μg/mL) • These stocks are aliquoted (˜100 μL/aliquot) and stored at −20° C. Methods: • 1. Dilute the substrate to 100 μM in assay buffer (30 μL/6 mL). The enzyme is diluted to 0.5 nM just prior to use (12 μL/6 mL for Factor XIa; 15 μL/6 mL for all of the rest.) • 2. Pipette 50 μL of substrate into each well of the 96 well (12×8) microtiter plate. (Column 1 is used as the 100% activity control and receives no compound, and Column 12 is the blank and receives no enzyme.) Add an additional 46 μL to column 2. • 3. Pipette 4 μL of each compound into the appropriate well in column 2 of the plate (unknowns assayed in triplicate, standard assayed in duplicate). The final compound concentration will be […] of the stock. • 4. Serially two-fold dilute the compound by mixing the sample in column 2, removing 50 μL to the next well (column 3), mix and remove to column 4, etc. until column 11. After mixing column 11, remove 50 μL and discard. • 5. Pipette 50 μL of buffer into column 12. Initiate the reaction by adding 50 μL of enzyme solution to each well of columns 1-11 as rapidly as possible. • 6. Read the plate in a spectrophotometer (SpectraMax) at 30° C., wherein each well is measured every 60 s for 30 min. For Factor Xa assays, each well is measured every 1 min for a total of 60 min. • 7. For Factor XIa assays, the compounds are assayed, in duplicate, at 3 different starting concentrations, 20, 2, and 0.2 μM; 1:10, 1:100, and 1:1000 dilution of 10 mM stock or at 2, 0.2, and 0.02 μM; 1:100, 1:1000, and 1:10,000 dilution of 10 mM stock. Data for each concentration are combined for graphing and data fitting. • 8. Data can be used both for estimation of IC50 and for estimation of Kon.
# Factor XIa = Factor XIa (Homo sapiens (Human), UniProt P03951); test: Factor XIa enzyme inhibition assay (dose response, fluorogenic AMC substrate); conditions: read-out: hFXIa IC50
# Outline: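 Fluorogenic progress curves (30 min, 1-min reads, 30° C) were recorded for 0.25 nM FXIa cleaving 50 μM Glp-Pro-Arg-AMC in Hepes pH 7.4 buffer with NaCl and Tween 20. Compounds were serially two-fold diluted, and IC50 was fitted with a Hill equation.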
# Factor Xa = Factor Xa (Homo sapiens (Human), UniProt P00742); test: Dose response assay for protease inhibitors: Factor Xa; conditions: selectivity, Factor Xa over Factor XIa
# Method: as §1
# Thrombin = Thrombin (Homo sapiens (Human), UniProt P00734); test: Dose response assay for protease inhibitors: thrombin; conditions: selectivity, thrombin over Factor XIa
# Method: as §1
# Chain of Factor Xa (P00742 235-488): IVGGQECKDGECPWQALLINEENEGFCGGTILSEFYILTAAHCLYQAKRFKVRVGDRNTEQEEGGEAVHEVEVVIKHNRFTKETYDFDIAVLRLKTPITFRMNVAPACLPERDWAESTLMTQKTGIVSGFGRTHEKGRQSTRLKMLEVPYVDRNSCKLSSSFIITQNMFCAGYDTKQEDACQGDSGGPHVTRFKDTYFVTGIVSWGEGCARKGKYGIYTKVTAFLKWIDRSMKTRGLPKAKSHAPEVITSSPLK
# Chain of Factor Xa (P00742 41-179 partner): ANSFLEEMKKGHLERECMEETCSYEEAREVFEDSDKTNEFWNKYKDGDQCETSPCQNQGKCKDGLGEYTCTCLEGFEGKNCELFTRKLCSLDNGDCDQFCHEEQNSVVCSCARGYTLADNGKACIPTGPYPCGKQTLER
# Chain of Factor XIa (P03951 388-625): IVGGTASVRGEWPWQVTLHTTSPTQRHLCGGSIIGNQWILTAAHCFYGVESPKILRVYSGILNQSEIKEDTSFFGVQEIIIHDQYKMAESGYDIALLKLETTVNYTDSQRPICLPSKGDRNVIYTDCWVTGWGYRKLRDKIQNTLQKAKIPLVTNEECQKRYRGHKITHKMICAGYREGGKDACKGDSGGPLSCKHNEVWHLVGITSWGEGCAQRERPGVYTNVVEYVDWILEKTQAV
# Chain of Factor XIa (P03951 19-387 partner): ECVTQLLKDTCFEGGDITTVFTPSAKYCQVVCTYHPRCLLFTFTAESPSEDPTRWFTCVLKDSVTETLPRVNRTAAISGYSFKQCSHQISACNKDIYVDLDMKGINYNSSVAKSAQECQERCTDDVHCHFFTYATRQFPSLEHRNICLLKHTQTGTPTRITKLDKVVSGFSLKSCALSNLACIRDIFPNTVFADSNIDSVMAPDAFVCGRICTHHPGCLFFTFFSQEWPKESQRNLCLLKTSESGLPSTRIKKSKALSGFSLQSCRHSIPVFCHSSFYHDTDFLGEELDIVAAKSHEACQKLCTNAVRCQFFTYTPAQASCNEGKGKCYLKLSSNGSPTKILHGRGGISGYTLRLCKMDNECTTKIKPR
Structure (SMILES),IC50 (Factor XIa),Ratio: FXa/FXIa (Factor Xa),Ratio: Thrombin/FXIa (Thrombin),Ratio: Trypsin/FXIa (Trypsin)
"CC[C@@H](NC(=O)N1C(=O)[C@H](Cc2cc(C)nc(N)c2)[C@H]1C(=O)N(C)c1nccn1C)c1ccc(Cl)cc1 [Compound 1-105, (2S,3R)-3-((2-amino-6-methylpyridin-4-yl)methyl)-N2-(1-methyl-1H-imidazol-2-yl)-N1-((R)-1-(4-chlorophenyl)propyl)-N2-methyl-4-oxoazetidine-1,2-dicarboxamide]",0.01 to 0.1 µM,I (“I” indicates > 500),H (“H” indicates 101-1000),G (“G” indicates 1-100)
"CC[C@@H](NC(=O)N1C(=O)[C@H](Cc2cc(C)nc(N)c2)[C@H]1C(=O)N(C)c1nccn1C)c1ccc(F)cc1 [Compound 1-106, (2S,3R)-3-((2-amino-6-methylpyridin-4-yl)methyl)-N2-(1-methyl-1H-imidazol-2-yl)-N1-((R)-1-(4-fluorophenyl)propyl)-N2-methyl-4-oxoazetidine-1,2-dicarboxamide]",< 0.01 µM,I (“I” indicates > 500),H (“H” indicates 101-1000),G (“G” indicates 1-100)
"CC[C@@H](NC(=O)N1C(=O)[C@H](Cc2cc(C)nc(N)c2)[C@H]1C(=O)N(C)c1nccn1C)c1cc(C)ccc1Cl [Compound 1-111, (2S,3R)-3-((2-amino-6-methylpyridin-4-yl)methyl)-N2-(1-methyl-1H-imidazol-2-yl)-N1-((R)-1-(2-chloro-5-methylphenyl)propyl)-N2-methyl-4-oxoazetidine-1,2-dicarboxamide]",< 0.01 µM,H (“H” indicates 101-1000),H (“H” indicates 101-1000),G (“G” indicates 1-100)

# Now from value to compound, other results behind:
IC50 (Factor XIa),Ratio: FXa/FXIa (Factor Xa),Ratio: Thrombin/FXIa (Thrombin),Structure (SMILES),Ratio: Trypsin/FXIa (Trypsin)
0.01 to 0.1 µM,I (“I” indicates > 500),H (“H” indicates 101-1000),"CC[C@@H](NC(=O)N1C(=O)[C@H](Cc2cc(C)nc(N)c2)[C@H]1C(=O)N(C)c1nccn1C)c1ccc(C)cc1 [Compound 1-107, (2S,3R)-3-((2-amino-6-methylpyridin-4-yl)methyl)-N2-(1-methyl-1H-imidazol-2-yl)-N1-((R)-1-(4-methylphenyl)propyl)-N2-methyl-4-oxoazetidine-1,2-dicarboxamide]",G (“G” indicates 1-100)
< 0.01 µM,H (“H” indicates 101-1000),H (“H” indicates 101-1000),"CC[C@@H](NC(=O)N1C(=O)[C@H](Cc2cc(C)nc(N)c2)[C@H]1C(=O)N(C)c1nccn1C)c1ccc(C)c(C)c1 [Compound 1-109, (2S,3R)-3-((2-amino-6-methylpyridin-4-yl)methyl)-N2-(1-methyl-1H-imidazol-2-yl)-N1-((R)-1-(3,4-dimethylphenyl)propyl)-N2-methyl-4-oxoazetidine-1,2-dicarboxamide]",G (“G” indicates 1-100)
0.01 to 0.1 µM,I (“I” indicates > 500),H (“H” indicates 101-1000),"CC[C@@H](NC(=O)N1C(=O)[C@H](Cc2cc(C)nc(N)c2)[C@H]1C(=O)N(C)c1nccn1C)c1cc(C)ccc1F [Compound 1-112, (2S,3R)-3-((2-amino-6-methylpyridin-4-yl)methyl)-N2-(1-methyl-1H-imidazol-2-yl)-N1-((R)-1-(2-fluoro-5-methylphenyl)propyl)-N2-methyl-4-oxoazetidine-1,2-dicarboxamide]",G (“G” indicates 1-100)
< 0.01 µM,H (“H” indicates 101-1000),H (“H” indicates 101-1000),"CC[C@@H](NC(=O)N1C(=O)[C@H](Cc2cc(C)nc(N)c2)[C@H]1C(=O)N(C)c1nccn1C)c1ccc(C)c(Cl)c1 [Compound 1-113, (2S,3R)-3-((2-amino-6-methylpyridin-4-yl)methyl)-N2-(1-methyl-1H-imidazol-2-yl)-N1-((R)-1-(3-chloro-4-methylphenyl)propyl)-N2-methyl-4-oxoazetidine-1,2-dicarboxamide]",G (“G” indicates 1-100)
